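All cell lines were grown in 96-well plates and treated with compound for 48 hours. GI50 = concentration required for 50% inhibition of growth.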 The source made the active and inactive calls. No stated cut-off is given here; in the data, active = GI50 up to about 1.1 µM and inactive = higher.
What was measured:
Assay in all cases: NCI-60 cell line screen, 48 h
786-0 = tested on: 786-0
A549 = tested on: A549
ACHN = tested on: ACHN
CCRF-CEM = tested on: CCRF-CEM
COLO 205 = tested on: COLO 205
DLD-1 = tested on: DLD-1
DMS-114 = tested on: DMS-114
DMS-273 = tested on: DMS-273
EKVX = tested on: EKVX
HCC 2998 = tested on: HCC 2998
HCT-116 = tested on: HCT-116
HCT-15 = tested on: HCT-15
HL-60 = tested on: HL-60
HOP-62 = tested on: HOP-62
HT-29 = tested on: HT-29
IGROV-1 = tested on: IGROV-1
K562 = tested on: K562
KM-20L2 = tested on: KM-20L2
LOX IMVI = tested on: LOX IMVI
LXFL 529 = tested on: LXFL 529
M14 = tested on: M14
M19-MEL = tested on: M19-MEL
MOLT-4 = tested on: MOLT-4
NCI-H226 = tested on: NCI-H226
NCI-H23 = tested on: NCI-H23
NCI-H460 = tested on: NCI-H460
OVCAR-4 = tested on: OVCAR-4
OVCAR-5 = tested on: OVCAR-5
OVCAR-8 = tested on: OVCAR-8
RPMI-8226 = tested on: RPMI-8226
RXF 393 = tested on: RXF 393
SF-268 = tested on: SF-268
SF-539 = tested on: SF-539
SK-MEL-28 = tested on: SK-MEL-28
SK-MEL-5 = tested on: SK-MEL-5
SK-OV-3 = tested on: SK-OV-3
SN12C = tested on: SN12C
SNB-19 = tested on: SNB-19
SNB-75 = tested on: SNB-75
SNB-78 = tested on: SNB-78
SR = tested on: SR
SW-620 = tested on: SW-620
TK-10 = tested on: TK-10
U-251 = tested on: U-251
UACC-257 = tested on: UACC-257
UACC-62 = tested on: UACC-62
UO-31 = tested on: UO-31
XF498 = tested on: XF498
CAKI-1 = tested on: CAKI-1
HOP-18 = tested on: HOP-18
HOP-92 = tested on: HOP-92
KM12 = tested on: KM12
Malme-3M = tested on: Malme-3M
NCI-H522 = tested on: NCI-H522
OVCAR-3 = tested on: OVCAR-3
SF-295 = tested on: SF-295
SK-MEL-2 = tested on: SK-MEL-2
A498 = tested on: A498

With `CCN(CC)CCNC(=O)c1ccccc1Nc1c(Cl)cccc1Cl` the GI50 (786-0) was 6.34 µM (inactive), the GI50 (A549) was 17 µM (inactive) and the GI50 (ACHN) was 17.5 µM (inactive). The GI50 (CCRF-CEM) was 14.1 µM (inactive), the GI50 (COLO 205) was 12.9 µM (inactive) and the GI50 (DLD-1) was 11.7 µM (inactive). The GI50 (DMS-114) was 11.6 µM (inactive), the GI50 (DMS-273) was 16.5 µM (inactive) and the GI50 (EKVX) was 12.7 µM (inactive). For the same compound, the GI50 (HCC 2998) was 6.82 µM (inactive), the GI50 (HCT-116) was 12.8 µM (inactive) and the GI50 (HCT-15) was 12.6 µM. For the same compound, the GI50 (HL-60) was 7.41 µM (inactive), the GI50 (HOP-62) was 11.3 µM (inactive) and the GI50 (HT-29) was 6.15 µM (inactive). The GI50 (IGROV-1) was 19.1 µM (inactive), the GI50 (K562) was > 10 µM (inactive) and the GI50 (KM-20L2) was 2.92 µM (inactive). The GI50 (LOX IMVI) was 11.3 µM (inactive), the GI50 (LXFL 529) was 16.5 µM (inactive) and the GI50 (M14) was 18.1 µM (inactive). For the same compound, the GI50 (M19-MEL) was 16.1 µM (inactive), the GI50 (MOLT-4) was 13.1 µM (inactive) and the GI50 (NCI-H226) was 17.8 µM (inactive). For the same compound, the GI50 (NCI-H23) was 18.2 µM (inactive), the GI50 (NCI-H460) was 4.39 µM (inactive) and the GI50 (OVCAR-4) was 14.8 µM (inactive). For the same compound, the GI50 (OVCAR-5) was 7.55 µM (inactive), the GI50 (OVCAR-8) was 16.4 µM (inactive) and the GI50 (RPMI-8226) was 12.2 µM (inactive). The GI50 (RXF 393) was 12.3 µM (inactive), the GI50 (SF-268) was 18.2 µM (inactive) and the GI50 (SF-539) was 17 µM (inactive). The GI50 (SK-MEL-28) was 18.3 µM (inactive), the GI50 (SK-MEL-5) was 11.8 µM (inactive) and the GI50 (SK-OV-3) was 16.7 µM (inactive). For the same compound, the GI50 (SN12C) was 13.7 µM (inactive), the GI50 (SNB-19) was 16.4 µM (inactive) and the GI50 (SNB-75) was 11.2 µM (inactive). The GI50 (SNB-78) was 16.4 µM (inactive), the GI50 (SR) was 13 µM (inactive) and the GI50 (SW-620) was 15.3 µM (inactive). The GI50 (TK-10) was 12.1 µM (inactive), the GI50 (U-251) was 6.56 µM (inactive) and the GI50 (UACC-257) was 15.1 µM (inactive). For the same compound, the GI50 (UACC-62) was 17.1 µM (inactive), the GI50 (UO-31) was 9.95 µM (inactive) and the GI50 (XF498) was 4.19 µM (inactive).

`N#CC(C#N)=c1c2nsnc2c(=C(C#N)C#N)c2nsnc12` was tested, and the GI50 (786-0) was 5.16 µM (inactive), the GI50 (A549) was 3.6 µM (inactive) and the GI50 (ACHN) was 1.81 µM (inactive). The GI50 (CAKI-1) was 1.86 µM (inactive), the GI50 (COLO 205) was 2.52 µM (inactive) and the GI50 (DLD-1) was 2.03 µM (inactive). For the same compound, the GI50 (DMS-114) was 1.91 µM (inactive), the GI50 (DMS-273) was 1.57 µM (inactive) and the GI50 (EKVX) was 4.2 µM (inactive). For the same compound, the GI50 (HCC 2998) was 1.77 µM (inactive), the GI50 (HCT-116) was 1.98 µM (inactive) and the GI50 (HL-60) was 2.27 µM (inactive). The GI50 (HOP-18) was 2.66 µM (inactive), the GI50 (HOP-62) was 2.04 µM (inactive) and the GI50 (HOP-92) was 1.45 µM (inactive). The GI50 (HT-29) was 1.59 µM (inactive), the GI50 (KM-20L2) was 1.8 µM (inactive) and the GI50 (KM12) was 1.85 µM (inactive). For the same compound, the GI50 (LOX IMVI) was 1.58 µM (inactive), the GI50 (LXFL 529) was 1.63 µM (inactive) and the GI50 (M14) was 2.07 µM (inactive). The GI50 (Malme-3M) was 1.65 µM (inactive), the GI50 (NCI-H226) was 16.7 µM (inactive) and the GI50 (NCI-H23) was 2.01 µM (inactive). For the same compound, the GI50 (NCI-H460) was 2.08 µM (inactive), the GI50 (NCI-H522) was 1.96 µM (inactive) and the GI50 (OVCAR-3) was 3.66 µM (inactive). The GI50 (OVCAR-4) was 1.96 µM (inactive), the GI50 (OVCAR-5) was 1.89 µM (inactive) and the GI50 (OVCAR-8) was 1.69 µM (inactive). The GI50 (RXF 393) was 1.28 µM (inactive), the GI50 (SF-268) was 2.3 µM (inactive) and the GI50 (SF-295) was 1.89 µM (inactive). For the same compound, the GI50 (SF-539) was 1.93 µM (inactive), the GI50 (SK-MEL-28) was 1.87 µM (inactive) and the GI50 (SK-MEL-2) was 2.02 µM (inactive). For the same compound, the GI50 (SNB-19) was 2.16 µM (inactive), the GI50 (SNB-75) was 1.51 µM (inactive) and the GI50 (SNB-78) was 1.74 µM (inactive). For the same compound, the GI50 (SW-620) was 1.47 µM (inactive), the GI50 (TK-10) was 16 µM (inactive) and the GI50 (U-251) was 1.79 µM (inactive). For the same compound, the GI50 (UACC-257) was 1.94 µM (inactive) and the GI50 (UO-31) was 1.84 µM (inactive).

`CCC(C)CCOC(=O)c1ccc(/N=C\c2ccc(/C=N/c3ccc(C(=O)OCCC(C)CC)cc3)cc2)cc1` (stereo unspecified) was tested, and the GI50 (786-0) was > 100 µM (inactive), the GI50 (A498) was > 100 µM (inactive) and the GI50 (A549) was > 100 µM (inactive). For the same compound, the GI50 (ACHN) was > 100 µM (inactive), the GI50 (CAKI-1) was > 100 µM (inactive) and the GI50 (CCRF-CEM) was > 100 µM (inactive). For the same compound, the GI50 (COLO 205) was > 100 µM (inactive), the GI50 (DLD-1) was > 100 µM (inactive) and the GI50 (DMS-114) was > 100 µM (inactive). For the same compound, the GI50 (DMS-273) was > 100 µM (inactive), the GI50 (EKVX) was 62.2 µM (inactive) and the GI50 (HCC 2998) was > 100 µM (inactive). The GI50 (HCT-116) was > 100 µM (inactive), the GI50 (HCT-15) was over 100 µM and the GI50 (HL-60) was > 100 µM (inactive). For the same compound, the GI50 (HOP-18) was > 100 µM (inactive), the GI50 (HOP-62) was > 100 µM (inactive) and the GI50 (HOP-92) was > 100 µM (inactive). The GI50 (HT-29) was > 100 µM (inactive), the GI50 (IGROV-1) was > 100 µM (inactive) and the GI50 (K562) was > 100 µM (inactive). For the same compound, the GI50 (KM-20L2) was > 100 µM (inactive), the GI50 (LOX IMVI) was > 100 µM (inactive) and the GI50 (LXFL 529) was > 100 µM (inactive). For the same compound, the GI50 (M14) was > 100 µM (inactive), the GI50 (MOLT-4) was > 100 µM (inactive) and the GI50 (Malme-3M) was > 100 µM (inactive). For the same compound, the GI50 (NCI-H226) was > 100 µM (inactive), the GI50 (NCI-H23) was > 100 µM (inactive) and the GI50 (NCI-H460) was > 100 µM (inactive). For the same compound, the GI50 (NCI-H522) was > 100 µM (inactive), the GI50 (OVCAR-3) was > 100 µM (inactive) and the GI50 (OVCAR-4) was > 100 µM (inactive). The GI50 (OVCAR-5) was > 100 µM (inactive), the GI50 (OVCAR-8) was > 100 µM (inactive) and the GI50 (RPMI-8226) was > 100 µM (inactive). The GI50 (RXF 393) was > 100 µM (inactive), the GI50 (SF-268) was > 100 µM (inactive) and the GI50 (SF-295) was > 100 µM (inactive). The GI50 (SF-539) was > 100 µM (inactive), the GI50 (SK-MEL-28) was > 100 µM (inactive) and the GI50 (SK-MEL-2) was > 100 µM (inactive). For the same compound, the GI50 (SK-MEL-5) was > 100 µM (inactive), the GI50 (SK-OV-3) was > 100 µM (inactive) and the GI50 (SN12C) was > 100 µM (inactive). For the same compound, the GI50 (SNB-19) was > 100 µM (inactive), the GI50 (SNB-75) was > 100 µM (inactive) and the GI50 (SNB-78) was > 100 µM (inactive). The GI50 (SR) was > 100 µM (inactive), the GI50 (SW-620) was > 100 µM (inactive) and the GI50 (U-251) was > 100 µM (inactive). The GI50 (UACC-257) was > 100 µM (inactive), the GI50 (UACC-62) was > 100 µM (inactive) and the GI50 (UO-31) was 41.1 µM (inactive).

Source: ChEMBL document CHEMBL1201862, “PubChem BioAssay data set” (2004)
